These results are taken from ChEMBL document CHEMBL3227967, “Quantitative structure-activity relationships in 1-aryl-2-(alkylamino)ethanol antimalarials” (J Med Chem, 1979).

This assay relates to Plasmodium berghei. The experiment in a line: Antimalarial activity against Plasmodium berghei. The class given is functional.
For `CCCCN(CCCC)CC(O)c1cc2ccc(Br)cc2c2ccsc12` (stereo not given), the “log(1/C)” value is 2.57. The figure for `OC(CC1CCCCN1)c1cc(-c2ccccc2)nc2c1ccc1ccccc12` (stereo not given) is 3.05; for `CCCCCCCN(CCCCCCC)CC(O)c1cc2ccccc2c2ccc3ccccc3c12` (stereo not given) it is 3.25; for `CCCCCCCN(CCCCCCC)CC(O)c1cccc2c1ccc1cc(Cl)c(Cl)cc12` (stereo not given) it is 2.55. As for `OC(CC1CCCCN1)c1cc2cc(Br)ccc2c2ccccc12` (stereo not given), the figure is 3.25; as for `CCCCN(CCCC)CC(O)c1cc(C(=O)c2cccc(Cl)c2)nc2c(Cl)cc(Cl)cc12` (stereo not given), 4.48; as for `CCCCN(CCCC)CC(O)c1cc2cc(Br)ccc2c2cc(S(C)(=O)=O)ccc12` (stereo not given), 3.43.

On to `CCCCN(CCCC)CC(O)c1cc(-c2ccc(F)cc2)nc(-c2ccc(F)cc2)c1` (stereo not given), for which the “log(1/C)” value was 3.23. Regarding `CCCCNCCC(O)c1cc2ccc(C(F)(F)F)cc2c2cc(C(F)(F)F)ccc12` (stereo not given), the “log(1/C)” value is given as 4.73. Take `OC(CC1CCCCN1)c1cc(Oc2ccc(Cl)cc2)nc2ccccc12` (stereo not given): the “log(1/C)” value is given as 2.68. Take `CCCCN(CCCC)CC(O)/C(=C/c1ccc(C(F)(F)F)cc1)c1ccc(C(F)(F)F)cc1` (stereo not given): the “log(1/C)” value was found to be 3.22. The figure for `CCCCCCCN(CCCCCCC)CC(O)c1cc2ccc(Cl)cc2c2ncccc12` (stereo not given) is 2.48. In the case of `OC(CC1CCCCN1)c1cc2ccccc2c2cc(C(F)(F)F)ccc12` (stereo not given), the “log(1/C)” value came out at 3.37. Take `CCCCCCCN(CCCCCCC)CC(O)c1cc(-c2ccc(Cl)c(Cl)c2)cc2cc(Cl)c(OC)cc12` (stereo not given): the “log(1/C)” value was 2.58.

Take `CCCCN(CCCC)CC(O)c1ccnc2cc(C(F)(F)F)ccc12` (stereo not given): the “log(1/C)” value is 2.51. As for `CCCCCCCN(CCCCCCC)CC(O)c1cccc2c1c(Br)cc1ccccc12` (stereo not given), the figure is 2.27; as for `CCCCN(CCCC)CC(O)c1cc2cc(Br)ccc2c2cc(SC)ccc12` (stereo not given), 3.04. The figure for `CCCCCCCCN(CCCCCCCC)CC(O)c1ccc(Br)c2ccccc12` (stereo not given) is 2.24. Turning to `CCCCCCCN(CCCCCCC)CC(O)c1cccc2cc3c(Cl)cccc3cc12` (stereo not given), the “log(1/C)” value is recorded as 2.44. The figure for `CCCCCCN(CCCCCC)CCC(O)c1cc2c(O)cccc2c2ccccc12` (stereo not given) is 2.52; for `CCCCCCCN(CCCCCCC)CC(O)c1cc2ccc(C(F)(F)F)cc2c2cc(C(F)(F)F)ccc12` (stereo not given) it is 3.89; for `CCCCN(CCCC)CC(O)c1cc(-c2ccc(F)cc2)nc2c(Cl)cc(Cl)cc12` (stereo not given) it is 3.98. Take `CCN(CC)CC(O)c1ccnc2cc(Cl)ccc12` (stereo not given): the “log(1/C)” value is 3.03. As for `CCCCCCN(CCCCCC)CC(O)c1cccc2ccc3ccccc3c12` (stereo not given), the figure is 2.2; as for `CCCCN(CCCC)CC(O)c1cc(-c2ccccc2)nc2ccc(OC)cc12` (stereo not given), 2.89.

For the compound `CCCCCCCN(CCCCCCC)CC(O)c1cc(-c2ccc(Cl)c(Cl)c2)cc2cc(Cl)ccc12` (stereo not given), the “log(1/C)” value came to 2.6. On to `CCCCN(CCCC)CC(O)c1cc2cc(Br)cc(Br)c2c2ccccc12` (stereo not given), for which the “log(1/C)” value is listed as 4.22. As to `CCCCN(CCCC)CC(O)c1cc2cc(Cl)c(Cl)cc2c2cc(Cl)c(Cl)cc12` (stereo not given), the “log(1/C)” value is listed as 4.18. As for `OC(CC1CCCCN1)c1cc(C(F)(F)F)nc2ccc(F)cc12` (stereo not given), the figure is 2.33.

In the case of `CCN(CC)CC(O)c1cc(-c2ccc(OC)cc2)nc2cc(Cl)c(OC)cc12` (stereo not given), the “log(1/C)” value is on record as 2.92.

As to `CCCN(CCC)CC(O)c1cccc2c1cc(Cl)c1ccccc12` (stereo not given), the “log(1/C)” value was found to be 2.02. As for `CCCCCCCN(CCCCCCC)CC(O)c1cc2ccccc2c2cc(Br)ccc12.O=C(O)CCC(=O)O` (stereo not given), the “log(1/C)” value was 3.52. The figure for `CCN(CC)C(CO)CC(O)c1cc(-c2cccs2)nc2ccc(Cl)cc12` (stereo not given) is 2.12. For `CCCCCCCCN(CCCCCCCC)CC(O)c1cc(-c2ccccc2)nc2cc(Cl)ccc12` (stereo not given), the “log(1/C)” value was determined as 2.82. As for `CCCCN(CCCC)CC(O)c1c(OC)c(-c2ccc(Cl)cc2)nc2c(C)cc(C)cc12` (stereo not given), the figure is 3.26.
